Results reported in publication PMC11775185, “Structure and function of a near fully-activated intermediate GPCR-Gαβγ complex” (Nature Communications, 2025).

How the values were obtained:
Assay in all cases: GTPase-Glo luminescence, Lineweaver-Burk
Gαsβγ alone = tested on: T1, Gαsβγ alone; format: biochemical; settings: […] Gαsβγ without receptor, with cognate GAP, pH […], room temperature
T1 construct: gene GNAS; full-length Gαsβγ heterotrimer without receptor
Source text: GTPase-Glo luminescence, Lineweaver-Burk on Gαsβγ alone | Km values for S4 mediated Gαsβγ, in reference to Gαsβγ alone (negative control)

[1] = tested on: T2, Gαsβγ (A2AR-Gαsβγ complex); format: biochemical, Homo sapiens; settings: R291A receptor (S4), with cognate GAP, pH […], room temperature
T2 construct: gene GNAS; cited protocols may use bovine/rat subunits), with purified A2AR_316 V229C in LMNG/CHS; Adenosine receptor A2a
Source text: GTPase-Glo luminescence, Lineweaver-Burk on WT*-mediated Gαsβγ (A2AR-Gαsβγ complex) | we measured the initial rates and Michaelis constants of GTP hydrolysis

[2] = tested on: T3, WT*-mediated Gαsβγ (A2AR-Gαsβγ complex); format: biochemical, Homo sapiens; settings: agonist-activated WT* receptor (S5), with cognate GAP, pH […], room temperature
T3 construct: gene GNAS; cited protocols may use bovine/rat subunits), with purified A2AR_316 V229C in LMNG/CHS; Adenosine receptor A2a
Source text: GTPase-Glo luminescence, Lineweaver-Burk on WT*-mediated Gαsβγ (A2AR-Gαsβγ complex) | and the S5 mediated Gαsβγ (positive control)

Km (Gαsβγ alone): 8.3 ± 0.61 µM
Km [1]: 18 ± 1.87 µM
Km [2]: 32.1 ± 1 µM
Structure (SMILES): Nc1nc2c(ncn2[C@@H]2O[C@H](COP(=O)(O)OP(=O)(O)OP(=O)(O)O)[C@@H](O)[C@H]2O)c(=O)[nH]1 [GTP]
